Reference: patent US7425577B2, “Lipase-colipase inhibitor” (Forskarpatent 1 SYD AB, priority 2003, dated 2008)
Values joined by “and” are separate entries in the source; they are usually repeats but may differ in a detail not shown here. Identical values can stand only once. “Also recorded” adds a separate entry of the source.

Assays:
[1] = In vivo Intralipid feeding test: free fatty acids and triglycerides in blood serum; parameters: species or system Sprague-Dawley rats
Description: Sprague-Dawley rats weighing 200-220 g, stored in cages using a 12 hours of light/12 hours of darkness cycle were used. They had free admittance to food and water prior to the test. The day prior a test the rats were fasted, and were anaesthetised in the morning using diethyl ether. 1 ml of Intralipid (200 mg/ml) with and without inhibitor was fed to the rats by means of a syringe through the mouth and ending in the stomach. Blood samples were taken at time 0, prior to the test start, and then after 30, 60, 120 and 180 minutes after feeding with Intralipid. After centrifugation, serum was separated and stored at −20° C. for analysis. Analyses of free fatty acids, triglycerides and total cholesterol were made. The test has been repeated, also using different dosages of the inhibitors tested.

[2] = Blood lipids analysis after 5 days of oral administration; format: in vivo, female Sprague-Dawley rats; conditions: 50 μl orally for 5 days
Description: Female female Sprague-Dawley rats were used for all experiments. Rats were housed in a temperature-controlled room (22±1° C.) under a 12-h light (6:00-18:00)/12-h cycle, given free access to water, and fed an libitum on a standard chow unless otherwise stated for a high-fat diet experiment. All procedures using animals were approved by the local ethics committee and followed the guidelines for experiments in animals (European Economic Community Council Directive 86/609/EEC).
Blood was drawn in rats from the intra-orbital bullar plexus under anaesthesia and collected in ice-cold tubes. Serum was obtained by centrifugation at 3000 g for 15 min at 4° C. […] Plasma triglycerides was determined with an Sigma diagnostics kit. Plasma fatty acids were measured by NEFAC kit (Wako chemicals GmbH, Neuss, Germany). Plasma PYY (3-36) and leptin were measured with the PYY Enzyme Immunossay kit and leptin Enzyme Immunossay (Phoenix Pharmaceuticals, USA)

lipase = molecular target: T1, lipase (Homo sapiens, UniProt P04118+P16233); experiment: Inhibition of lipase activity in vitro assay, tributyrin or Intralipid as substrates (FIGS. 1A and 1B); format: biochemical; conditions: for Inhibition of lipase activity in vitro: tributyrin or intralipid as substrates
T1 sequence (P16233 17-465): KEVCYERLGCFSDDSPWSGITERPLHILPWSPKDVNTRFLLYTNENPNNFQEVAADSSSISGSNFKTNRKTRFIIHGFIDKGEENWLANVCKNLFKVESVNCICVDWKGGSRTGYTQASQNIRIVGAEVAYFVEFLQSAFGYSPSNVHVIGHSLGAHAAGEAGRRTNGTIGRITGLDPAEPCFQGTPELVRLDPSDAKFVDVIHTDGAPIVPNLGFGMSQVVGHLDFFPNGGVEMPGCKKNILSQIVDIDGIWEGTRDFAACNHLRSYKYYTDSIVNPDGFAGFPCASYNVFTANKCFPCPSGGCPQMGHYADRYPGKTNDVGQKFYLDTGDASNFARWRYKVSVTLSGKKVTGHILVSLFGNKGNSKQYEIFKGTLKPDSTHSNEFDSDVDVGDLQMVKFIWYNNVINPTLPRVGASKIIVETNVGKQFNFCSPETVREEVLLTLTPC
T1 sequence (P04118 23-112): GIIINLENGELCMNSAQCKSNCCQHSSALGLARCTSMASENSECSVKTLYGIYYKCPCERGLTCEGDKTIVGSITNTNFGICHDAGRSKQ

[3] = Acute effect on blood lipids: single dose plus Intralipid in overnight-fasted rats; format: in vivo, female Sprague-Dawley rats; conditions: single dose 200 μl plus 1 ml Intralipid (200 mg); 0, 30, 60, 120 and 180 min
Description: Blood was drawn in rats from the intra-orbital bullar plexus under anaesthesia and collected in ice-cold tubes. Serum was obtained by centrifugation at 3000 g for 15 min at 4° C. For acute effect of dimethylaminoethyl dodecyl ether on blood lipids, overnight-fasted rats were given 200 μl dimethylaminoethyl dodecyl ether plus 1 ml (200 mg) Intralipids orally through a gastric gavage and blood collected at 0, 30, 60, 120 and 180 min. Plasma triglycerides was determined with an Sigma diagnostics kit. Plasma fatty acids were measured by NEFAC kit (Wako chemicals GmbH, Neuss, Germany). Plasma PYY (3-36) and leptin were measured with the PYY Enzyme Immunossay kit and leptin Enzyme Immunossay (Phoenix Pharmaceuticals, USA)

Dose at which the maximum inhibition of lipase activity was seen (lipase; Intralipid as substrate): 80 µmol
Dose at which the maximum inhibition of lipase activity was seen (lipase; tributyrin as substrate): 40 µmol
Inhibition of lipase activity in vitro (lipase): completely inhibited lipase activity
SMILES: CCCCCCCCCCCCOCCN(C)C [dimethylaminoethyl dodecyl ether]
Triglycerides ([1]; rat blood serum, 0 min (prior to Intralipid feeding)): 103 mg/dL
Free fatty acids ([1]; rat blood serum, 0 min (prior to Intralipid feeding), listed as Compound C12): 0.56 mmol and 0.57 mmol
Triglycerides ([1]; rat blood serum, 30 min after 1 ml Intralipid with inhibitor): 95 mg/dL
Free fatty acids ([1]; rat blood serum, 30 min after 1 ml Intralipid with inhibitor, listed as Compound C12): 0.63 mmol and 0.67 mmol
Triglycerides ([1]; rat blood serum, 60 min after 1 ml Intralipid with inhibitor): 98 mg/dL
Free fatty acids ([1]; rat blood serum, 60 min after 1 ml Intralipid with inhibitor, listed as Compound C12): 0.70 mmol and 0.72 mmol
Triglycerides ([1]; rat blood serum, 120 min after 1 ml Intralipid with inhibitor): 95 mg/dL
Free fatty acids ([1]; rat blood serum, 120 min after 1 ml Intralipid with inhibitor, listed as Compound C12): 0.60 mmol and 0.72 mmol
Triglycerides ([1]; rat blood serum, 180 min after 1 ml Intralipid with inhibitor): 77 mg/dL
Free fatty acids ([1]; rat blood serum, 180 min after 1 ml Intralipid with inhibitor, listed as Compound C12): 0.62 mmol and 0.74 mmol
Free fatty acids (% of control) ([1]; rat, dose of active compound 10 μg): 83.7 % of control
Free fatty acids ([1]; rat, dose of active compound 10 μg, dose 0: 1.45): 1.25 mM
Free fatty acids (% of control) ([1]; rat, dose of active compound 50 μg): 56.1 % of control
Free fatty acids ([1]; rat, dose of active compound 50 μg, dose 0: 1.45): 0.83 mM
Free fatty acids (% of control) ([1]; rat, dose of active compound 100 μg): 57.4 % of control
Free fatty acids ([1]; rat, dose of active compound 100 μg, dose 0: 1.45): 0.85 mM
Free fatty acids (% of control) ([1]; rat, dose of active compound 200 μg): 74.3 % of control
Free fatty acids ([1]; rat, dose of active compound 200 μg, dose 0: 1.45): 1.1 mM
Serum (plasma) cholesterol level vs vehicle [2]: no effect; also recorded: no difference
Serum fatty acids level vs vehicle [2]: decreased serum triglyceride and fatty acids, but this was not statistic significance; also recorded: decreased
Serum triglyceride level vs vehicle [2]: decreased serum triglyceride and fatty acids, but this was not statistic significance; also recorded: decreased
Inhibition of lipase activity in vitro (lipase; listed as Dimethylaminoethyl dodecyl ether): inhibited lipase activity in a dose-depended manner
Serum (plasma) fatty acids vs Intralipid alone [3]: significantly reduced; also recorded: decreased
Serum (plasma) triglycerides vs Intralipid alone [3]: significantly reduced
